Source: US9193687B2 (priority 2007, dated 2015)
pIC50: −log10 of the molar value. “And” between values parts separate entries of the source, which are not always exact repeats. Equal values may be shown once. Where a name gives a salt, the structure may show the parent alone. Read-outs that look alike come from different tables or passages of the source.

Legend:
[1] = test system: CCRF-CEM human lymphoblastic leukemia cells; assay: cells; details: read-out: Cytotoxicity IC50, CCRF-CEM
[2] = test system: Human colon carcinoma HCT-116 cells; assay: cells
lung cancer H1299 = assay: cells; details: Homo sapiens, NCI-H1299, read-out: Cytotoxicity IC50, H1299
prostate cancer (PC3) = assay: cells; details: Homo sapiens, read-out: Cytotoxicity IC50, PC3
lung cancer H460 = assay: cells; details: Homo sapiens, NCI-H460, read-out: Cytotoxicity IC50, H460
[3] = test system: human mammary carcinoma MX-1 xenograft; assay: Antitumor therapeutic effect against MX-1 xenograft in nude mice; type: in vivo; details: i.v. injection; for Therapeutic effect: complete tumor remission (CR), mice with CR/total and day: treatment from Day 8, dose and schedule per compound as in Table 3 (30-150 mg/kg)
Method: Athymic nude mice bearing the nu/nu gene were obtained from NCI, Frederick, Md. and used for all human tumor xenografts. Male nude mice 6 weeks or older weighing 20-24 g or more were used. Compounds were administered via the tail vein for i.v. injection or infusion as described previously.^64 A typical formulation for chemotherapeutic studies for each drug was dissolved in DSMO to make a 25 mg/ml fresh solution, 0.4 ml of this solution was mixed with 0.3 ml of Tween 80, plus 1.3 ml to make 2 ml of 5 mg/ml solution. Bolus injection volume was 0.1-0.2 ml per mouse. Tumor volume was assessed by measuring length×width×height (or width) by using a caliper. For tumor-bearing nude mice during the course of the experiment, the body weight refers to total weight minus the weight of the tumor. All animal studies were conducted in accordance with the guidelines for the National Institute of Health Guide for the Care and Use of Animals and the protocol approved by the Institutional Animal Care and Use Committee.
The therapeutic effects of a drug against human tumor xenografts in nude mice, under the optimal therapeutic conditions but without any lethality due to drug toxicity, the following degrees of therapeutic effects are defined and calculated by the following formula: […]
where • T0 is the initial tumor size (in mm^3) at beginning of drug treatment; • Tc is tumor size of untreated control group on a given date; and • Tx is tumor size of the drug treated group on a given date.
[formula] • Tumor disappearance (complete remission or CR) is defined by the effect where • [Tx=0] for a period of time (in days) for a proportion of animals (NCR/N), where • N is the total number of animals in the group, and NCR is the number of mice in the group that achieved CR. • Tumor relapse is quantitatively calculated by • [The Day tumor relapsed (Drelp)—The Day CR achieved (DCR)] (Eq. 3) for a proportion of animals (Nrelp/N) where N is the total number of animals in the group, and Nrelp is the number of the mice in the group that relapsed. • The log cell kill (LCK) of the tumor tissue after a given chemotherapy that reached CR is estimated by: LCK=log [2^(Tumor remission in days/Tumor doubling time in days)] (Eq. 4)
Athymic nude mice bearing the nu/nu gene were used for human breast tumor MX-1 xenograft (FIGS. 3 and 4) and human brain glioma U87 GM xenograft (FIG. 5). Nude mice were obtained from National Cancer Institute, Frederick, Md. Male mice 6 weeks old or older weighing 22 g or more were used for experiments with subcutaneous tumor inoculation as described previously.^67 Drug was administrated via the tail vein by iv injection. Tumor volumes were assessed by measuring length×width×height (or width) by using caliper. Vehicle used was 20 μL DMSO in 180 μL saline. All animal studies were conducted in accordance with the guidelines of the U.S. National Institutes of Health Guide for the Care and Use of Animals and the protocol approved by the Institutional Animal Care and Use Committee.

CCRF-CEM/Taxol = assay: In vitro cytotoxicity, XTT assay, taxol-resistant subline; details: Homo sapiens, CCRF-CEM, 72 h, read-out: Cytotoxicity IC50, CCRF-CEM/Taxol
[4] = test system: Human mammary carcinoma (MX-1) tumor cells; assay: In vitro cytotoxicity, SRB assay, 72-hr incubation; details: Homo sapiens, 72 h, read-out: Cytotoxicity IC50, MX-1
[5] = HCT-116, read-out: Cytotoxicity IC50, HCT-116
[6] = dose and schedule per compound as in Table 3
[7] = HCT-116, 72 h, read-out: Cytotoxicity IC50, HCT-116

Row | SMILES | pIC50 [1] | pIC50 [2, 5] | pIC50 (lung cancer H1299) | pIC50 (prostate cancer (PC3)) | pIC50 (lung cancer H460) | pIC50 ([1]; 72 h) | Therapeutic effect: complete tumor remission (CR), mice with CR/total and day [3] | Maximal body-weight loss (%) [3, 6] [%] | Therapeutic effect: tumor relapse [3, 6] | pIC50 [2, 7] | pIC50 (CCRF-CEM/Taxol) | pIC50 [4]
1 | O=C(CN1CCCCC1)Nc1cccc(NC(=O)Nc2ccc(N(CCCl)CCCl)cc2)c1 [BO-2184] | 5.87 | 5.12 | 5.07 | 5.00 | 5.25 |  |  |  |  |  |  | 
2 | O=C(CCN1CCCC1)Nc1ccc(NC(=O)Nc2ccc(N(CCCl)CCCl)cc2)cc1 [BO-2075] | 6.55 | 5.83 | 5.19 | 5.46 | 5.99 |  |  |  |  |  |  | 
3 | CCN(CC)CC(=O)Nc1ccc(NC(=O)Nc2ccc(N(CCCl)CCCl)cc2)cc1 [BO-2094, N-(4-(3-(4-(Bis(2-chloroethyl)amino)phenyl)ureido)-phenyl)-2-(diethylamino)-acetamide] |  | 5.77 | 5.46 | 5.45 | 6.03 |  |  |  |  |  |  | 
4 | CN(C)CC(=O)Nc1cccc(NC(=O)Nc2ccc(N(CCCl)CCCl)cc2)c1 [BO-2189, N-(3-(3-(4-(bis(2-chloroethyl)amino)phenyl)ureido)phenyl)-2-(dimethyl-amino)acetamide] | 6.11 | 5.02 | 4.97 | 4.72 | 5.06 |  |  |  |  |  |  | 
5 | O=C(CN1CCC(N2CCCCC2)CC1)Nc1cccc(NC(=O)Nc2ccc(N(CCCl)CCCl)cc2)c1 [BO-2188] | 4.52 | 5.21 | 4.89 | 4.59 | 4.91 |  |  |  |  |  |  | 
6 | O=C(CN1CCCC1)Nc1ccc(NC(=O)Nc2ccc(N(CCCl)CCCl)cc2)cc1 [BO-2093] | 6.59 |  | 5.47 | 5.45 | 6.02 |  |  |  |  |  |  | 
7 | O=C(CN1CCOCC1)Nc1cccc(NC(=O)Nc2ccc(N(CCCl)CCCl)cc2)c1 [BO-2182] | 5.41 | 4.89 | 4.58 | 4.45 | 4.71 |  |  |  |  |  |  | 
8 | O=C(CCN1CCCCC1)Nc1ccc(NC(=O)Nc2ccc(N(CCCl)CCCl)cc2)cc1 [BO-2057] |  |  | 5.52 | 5.64 | 5.80 |  |  |  |  |  |  | 
9 | O=C(CN1CCCC1)Nc1cccc(NC(=O)Nc2ccc(N(CCCl)CCCl)cc2)c1 [BO-2151, N-(3-(3-(4-(bis(2-chloroethyl)amino)phenyl)ureido)-phenyl)-2-(pyrrolidin-1-yl)acetamide] | 5.47 | 5.27 | 5.03 | 4.89 | 5.18 |  |  |  |  |  |  | 
10 | CCN(CC)CCC(=O)Nc1ccc(NC(=O)Nc2ccc(N(CCCl)CCCl)cc2)cc1 [BO-2073, N-(4-(3-(4-(Bis(2-chloroethyl)amino)phenyl)ureido)-phenyl)-3-(diethylamino)-propanamide] | 6.52 | 5.68 | 4.99 | 5.61 | 5.74 |  |  |  |  |  |  | 
11 | O=C(CCN1CCOCC1)Nc1cccc(NC(=O)Nc2ccc(N(CCCl)CCCl)cc2)c1 [BO-2148] | 5.51 | 4.78 | 4.80 | 4.45 | 4.41 |  |  |  |  |  |  | 
12 | CN(C)CCC(=O)Nc1cccc(NC(=O)Nc2ccc(N(CCCl)CCCl)cc2)c1 [BO-2091, N-(3-(3-(4-(bis(2-chloroethyl)amino)-phenyl)ureido)phenyl)-3-(dimethylamino)-propanamide] | 6.28 | 5.48 | 5.05 | 4.87 | 4.77 |  |  |  |  |  |  | 
13 | CN(C)CC(=O)Nc1ccc(NC(=O)Nc2ccc(N(CCCl)CCCl)cc2)cc1 [BO-2095] | 6.54 | 5.60 | 5.27 | 5.13 | 5.92 |  |  |  |  |  |  | 
14 | O=C(CCN1CCCC1)Nc1cccc(NC(=O)Nc2ccc(N(CCCl)CCCl)cc2)c1 [BO-2121] | 6.17 | 5.29 | 5.36 | 4.99 | 5.01 |  |  |  |  |  |  | 
15 | O=C(CCN1CCCCC1)Nc1cccc(NC(=O)Nc2ccc(N(CCCl)CCCl)cc2)c1 [BO-2147, N-(3-(3-(4-(Bis(2-chloroethyl)amino)phenyl)ureido)-phenyl)-3-(piperidin-1-yl)-propanamide] | 6.41 | 5.45 | 5.33 | 5.24 | 5.10 |  |  |  |  |  |  | 
16 | O=C(CCN1CCC(N2CCCCC2)CC1)Nc1ccc(NC(=O)Nc2ccc(N(CCCl)CCCl)cc2)cc1 [BO-2118] | 6.14 | 4.96 | 4.44 | 4.52 | 4.84 |  |  |  |  |  |  | 
17 | O=C(CN1CCC(N2CCCCC2)CC1)Nc1ccc(NC(=O)Nc2ccc(N(CCCl)CCCl)cc2)cc1 [BO-2117] | 5.94 | 5.37 | 4.84 | 5.14 | 4.83 |  |  |  |  |  |  | 
18 | O=C(Nc1ccc(N(CCCl)CCCl)cc1)Nc1cc(CO)cc(Nc2c3ccccc3nc3ccccc23)c1 [BO-1037, 1-[3-(acridin-9-ylamino)-5-hydroxymethylphenyl]-3-{4-[bis(2-chloroethyl)amino]phenyl}urea] |  |  |  |  |  | 7.22 | achieved CR in parts of the mice and 2/3 CR on D23, 25 | 12 | 2/3 relapsed on D40, 40 | 6.66 | 4.77 | 6.43
19 | CCN(CC)CCC(=O)Nc1cccc(NC(=O)Nc2ccc(N(CCCl)CCCl)cc2)c1 [BO-2120] | 6.07 | 5.49 | 5.24 | 4.89 | 5.17 |  |  |  |  |  |  | 
20 | O=C(CN1CCCCC1)Nc1ccc(NC(=O)Nc2ccc(N(CCCl)CCCl)cc2)cc1 [BO-2092, N-(4-(3-(4-(bis(2-chloroethyl)amino)phenyl)ureido)-phenyl)-2-(piperidin-1-yl)-acetamide] | 6.51 | 5.82 | 5.60 | 5.65 | 5.98 |  |  |  |  |  |  | 
21 | O=C(Nc1cc(CO)cc(Nc2c3ccccc3nc3ccccc23)c1)Oc1ccc(N(CCCl)CCCl)cc1 [BO-1062, [3-(acridin-9-ylamino)-5-hydroxymethylphenyl]carbamic acid 4-[bis(2-chloroethyl)amino]phenyl ester] |  |  |  |  |  | 7.10 | achieved complete tumor remission and 1/1 CR on D22 | 17 |  | 6.24 | 6.85 | 7.00
22 | CCN(CC)CC(=O)Nc1cccc(NC(=O)Nc2ccc(N(CCCl)CCCl)cc2)c1 [BO-2183] | 5.70 | 5.34 | 4.93 | 4.89 | 5.25 |  |  |  |  |  |  | 
23 | O=C(CN1CCOCC1)Nc1ccc(NC(=O)Nc2ccc(N(CCCl)CCCl)cc2)cc1 [BO-2096] | 5.95 | 5.18 | 4.73 | 4.80 | 5.32 |  |  |  |  |  |  | 
24 | O=C(CCN1CCC(N2CCCCC2)CC1)Nc1cccc(NC(=O)Nc2ccc(N(CCCl)CCCl)cc2)c1 [BO-2191, 3-([1,4′-bipiperidin]-1′-yl)-N-(3-(3-(4-(bis(2-chloroethyl)amino)phenyl)ureido)phenyl)propanamide hydrochloride] | 5.79 | 4.81 | 4.96 | 4.66 | 4.85 |  |  |  |  |  |  | 
25 | O=C(CCN1CCOCC1)Nc1ccc(NC(=O)Nc2ccc(N(CCCl)CCCl)cc2)cc1 [BO-2074] | 5.97 | 5.15 | 4.82 | 5.01 | 5.40 |  |  |  |  |  |  | 
